PMC7308088, “A moth odorant receptor highly expressed in the ovipositor is involved in detecting host-plant volatiles” (eLife, 2020)

Biological target: T1, HassOR31/HassORco (Helicoverpa assulta, UniProt A0A7D3UMA0)
T1 construct: with Odorant receptor coreceptor
T1 sequence (A0A7D3UMA0 1-395): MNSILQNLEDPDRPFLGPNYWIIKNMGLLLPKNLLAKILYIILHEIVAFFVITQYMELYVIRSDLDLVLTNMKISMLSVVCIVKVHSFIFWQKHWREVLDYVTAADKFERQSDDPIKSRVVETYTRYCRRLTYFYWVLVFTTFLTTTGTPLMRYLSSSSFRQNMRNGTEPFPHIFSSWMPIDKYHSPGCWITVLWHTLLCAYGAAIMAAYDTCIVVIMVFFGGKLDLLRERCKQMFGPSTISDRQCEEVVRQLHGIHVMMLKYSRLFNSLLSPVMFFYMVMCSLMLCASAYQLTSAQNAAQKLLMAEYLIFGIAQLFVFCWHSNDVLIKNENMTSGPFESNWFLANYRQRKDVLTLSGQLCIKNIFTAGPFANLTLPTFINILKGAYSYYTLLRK
T1 sequence (A7UGE1 1-473 partner): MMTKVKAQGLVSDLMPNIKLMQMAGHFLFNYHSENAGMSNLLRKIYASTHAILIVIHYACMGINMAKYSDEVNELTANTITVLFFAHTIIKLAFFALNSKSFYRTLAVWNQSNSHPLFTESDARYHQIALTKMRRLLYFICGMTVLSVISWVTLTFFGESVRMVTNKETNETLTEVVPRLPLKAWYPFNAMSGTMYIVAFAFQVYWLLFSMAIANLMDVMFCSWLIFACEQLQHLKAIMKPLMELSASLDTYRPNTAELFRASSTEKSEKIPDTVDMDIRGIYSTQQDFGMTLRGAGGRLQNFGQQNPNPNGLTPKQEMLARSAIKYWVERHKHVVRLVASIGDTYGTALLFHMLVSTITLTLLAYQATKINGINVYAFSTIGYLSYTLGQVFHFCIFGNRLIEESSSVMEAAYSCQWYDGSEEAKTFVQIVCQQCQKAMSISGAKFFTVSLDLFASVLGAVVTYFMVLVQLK
Experiment: two-electrode voltage clamp, Xenopus oocytes, inward current
Format: cell-based

With `CC/C=C\CCOC(=O)CCC` [Z-3-hexenyl butyrate] the EC50 was 16.1 µM.
